Measured values from patent publication US12589229B2, “Macroporous solid hard microneedles with embedded particulate drugs” (priority 2021, dated 2026).
Where a name gives a salt, the structure may show the parent alone.

Assays:
[1] = FTIR spectroscopy of drug encapsulated in resin microneedles (changes during fabrication); format: physicochemical; conditions: drug encapsulated in cured resin microneedle vs powder
Text: FTIR spectroscopy was used to evaluate possible changes in the encapsulated drugs during the fabrication process. A Nicolet 6700 (ThermoScientific™; Waltham, MA, USA) with a Smart™ iTX ATR accessory having a diamond crystal was used. […] In FTIR, an increase in the peak intensity usually reflects an increase in the amount (per unit volume) of the functional group associated with the molecular bond, whereas a shift in peak position usually reflects a change in the hybridization state or electron distribution in the molecular bond. […] The peaks at 1721 cm^−1 and 3400 cm^−1 are assigned to the stretching vibrations of C═O and O—H, respectively.

[2] = In vitro dye release from dye-loaded microneedle patch into parafilm-covered gelatin; format: physicochemical; conditions: 10% gelatin covered with parafilm
Description: In order to show in vitro release of the microneedles visually, a resin/dye paste was prepared. A biocompatible resin (Dental SG) from Formlabs (Somerville, MA, USA) and sulforhodamine B (SKU: 230162-5G, MilliporeSigma; Burlington, MA, USA) as dye were used. Due to the small size of the microneedles, the dye particles were ground into finer particles with smaller sizes. The encapsulation of unground and ground dye in microneedles was compared by preparing microneedles with both unground and ground sulforhodamine B particles. The unground and ground particles of the dye are shown in FIGS. 35a and 35b, respectively, and the size distribution of the unground and ground dye is shown in FIG. 35c. On average, the unground and ground dye particles had particle sizes of about 50 micrometers and 6 micrometers, respectively. […] A solid acrylic ring was added around the substrate so that the microneedle patch could be held and applied easily (see FIG. 35g). The in vitro dye release experiment is shown schematically in FIG. 35h. A 10% gelatin (gelatin from porcine skin, SKU: G2500-1KG from Millipore Sigma) solution was prepared as a model tissue and was poured in a petri dish. Then, it was placed in the refrigerator for 20 minutes to further solidify. A thin layer of parafilm (Parafilm ° M, Amcor; Zurich, Switzerland) was then used as a skin model to cover the gelatin solution in the petri dish.

circulating B cells = test: In vivo primate study, rituximab IV versus microneedle transdermal delivery, circulating B cells by flow cytometry; parameters: species or system African green monkeys; conditions: IV dosing, first week
Description: An in vivo primate study was performed to compare the systemic pharmacodynamic effect of rituximab (RTX) following intravenous (IV) delivery versus microneedle-mediated, transdermal (TD) delivery in African green monkeys. […] The pharmacodynamic effect was quantified by the measurement of circulating B cells by flow cytometry (all these graphs are generated by flow cytometry), employing rituximab as a tool compound to assess the ability of a novel microneedle formulation and delivery technology to achieve systemic bioavailability of macromolecules (e.g. monoclonal antibodies) following transdermal delivery. […] The depletion over time for the two patches is shown in FIG. 29 for 0, 1, 7, 14 and 21 days.

CD20+ cells = test: In vitro whole blood assay with RTX-loaded microneedle patches, flow cytometry; format: cell-based, human
Description: To evaluate the effectiveness of the treatment being delivered through microneedles an in vitro model, a whole blood assay was performed using Rituximab (RTX) as the drug. Rituximab is a chimeric monoclonal antibody against the protein CD20, which is primarily found on the surface of immune system B cells. When it binds to this protein it triggers cell death via Complement-Dependent Cytotoxicity (CDC). RTX is a good model to evaluate the mAb delivery mechanism mainly because of its clear pharmacodynamics outcome, the depletion of CD20+B-Cell in whole blood. Microneedle patches with five different amounts of RTX and a constant polymer-to-drug ratio were incubated in freshly collected human blood in a 24-well plate. Flow cytometry was used to quantify CD20+ and CD19+ cells in each well. […] CD20+ cells are present in samples (a) through (c) on the left but absent from samples (d) through (f) on the right. The conditions are as follows: (a) Buffy coat and serum without microneedle (MN) exposure and prior to incubation; (b) Blood without MN exposure and after 4 h incubation; (c) Blood with exposure to an inert MN after incubation; (d) Blood after incubation with one MN (20 μg RTX); (e) blood after incubation with five MNs (100 μg RTX); and (f) blood after incubation with 200 MNs (4 mg RTX). […]

CC(C)Cc1ccc(C(C)C(=O)[O-])cc1.[Na+] (centres unmarked) [ibuprofen, ibuprofen sodium salt]
chemical structure during the fabrication process (FTIR) [1]: remained unchanged

CCN(CC)CC(=O)Nc1c(C)cccc1C [lidocaine, lidocaine hydrochloride monohydrate]
chemical structure during the fabrication process (FTIR) [1]: remained unchanged

CCN(CC)c1ccc2c(-c3ccc(S(=O)(=O)O)cc3S(=O)(=O)[O-])c3ccc(=[N+](CC)CC)cc-3oc2c1 [sulforhodamine B]
release of the dye into the gelatin solution [2]: visible release

Rituximab
B-cell depletion in blood (circulating B cells): most significant B-cell depletion | activity of RTX after completion of the microneedle patch manufacturing process (CD20+ cells): preserved
